Data set [1] concerns P. falciparum NF54 gametocytes. In words: gametocyte viability assay (AlamarBlue). The format is cell-based, Plasmodium falciparum. Particulars: for IC50: P. falciparum NF54 stage III-V gametocytes, 72 h, AlamarBlue, mean ± SD, n = 3; for Asexual/Gametocyte: ratio of asexual IC50 to gametocyte IC50. As for the experimental part:
(§1) Asexual parasites of P. falciparum strain NF54 were cultured as described previously. Briefly, parasites were maintained in RPMI 1640 medium containing 10% positive human serum + erythrocytes (5% haematocrit), 2.5% sodium bicarbonate and 11 µg/mL gentamicin at 37 °C with 5% CO2, 5% O2 and 90% N2. Gametocyte cultures were set up at 0.1% parasitaemia and on days 9–10 treated with 50 mM N-acetylglucosamine (NAG) to block further asexual growth. Stage III–V gametocytes were isolated by Percoll density gradient centrifugation on day 12 and returned to culture for 24 h before being used in the assay. At the time of the assay over 73% of the gametocytes were stage IV or V (Additional file 1). HepG2 cells (ATCC, cat. no. 77400) were cultured in 175-cm^2 tissue culture flasks with 30 ml growth medium at 37 °C in a 5% CO2 and 5% O2 humidified atmosphere. Growth medium was made with Dulbecco’s Modified Eagle Medium with 10% fetal bovine serum (FBS). Growth medium was replaced every other day and cells were passaged at 75% confluence.
Compounds from the Sytravon library (a retired Pharma screening collection that contains a diversity of novel small molecules, with an emphasis on medicinal chemistry-tractable scaffolds) were obtained as powder samples and dissolved in DMSO as […] stock solutions. Compound screening experiments were performed as previously described. In the primary screen, two concentrations for each compound were tested. No technical and biological replicates were involved. In the follow-up confirmation studies, three biological replicates were tested for each compound in both parasite assays. The positive control was 46 µM of Torin 2 and negative control was DMSO. Briefly, 2.5 μL/well incomplete medium was dispensed into each well of 1536-well plates using the Multidrop Combi followed by 23 nL compound transferring using the NX-TR Pintool (WAKO Scientific Solutions, San Diego, CA). Then, 2.5 μL/well of gametocytes was dispensed with a seeding density of 20,000 cells/well using the Multidrop Combi. The assay plates were incubated for 72 h at 37 °C with 5% CO2. After addition of 5 μL/well of 2X AlamarBlue dye (Life Technologies, cat. no. DAL1100), the plates were incubated for 24 h at 37 °C with 5% CO2 and then were read in a fluorescence detection mode (Ex = 525 nm, Em = 598 nm) on a ViewLux plate reader (PerkinElmer).
(In general: The colour change of resazurin is a common sign of viable cells or microbes.)

Data set [2] concerns P. falciparum NF54 asexual parasites. The data set is described as follows: asexual parasite growth inhibition assay (SYBR Green). The class given is cell-based, Plasmodium falciparum. The conditions noted are these: 72 h, mean ± SD, n = 3. How it is done:
as §1
Drug activity on asexual stage parasites was tested using a SYBR Green assay as described previously. Briefly, 2.5 μL/well complete culture medium was dispensed into each well of 1536-well plates using the Multidrop Combi followed by 23 nL compound transferring using the NX-TR Pintool. Parasites were diluted to 0.5% parasitaemia in complete culture medium with 2% haematocrit and drugs diluted in DMSO (≤0.5%). The pre-diluted parasites were dispensed into a 1536-well plate (2.5 μL/well). After 72 h incubation under the standard culture conditions, 5 μL/well of lysis buffer containing SYBR Green I was added to the parasite culture and incubated for 30 min at room temperature. The fluorescence of each well was measured in a fluorescence detection mode (Ex = 490 nm, Em = 520 nm) using a ViewLux plate reader (PerkinElmer).

Data set [3] deals with HepG2 cells. In words: HepG2 cytotoxicity assay (AlamarBlue). The format is cell-based, human. The conditions noted are these: for cytotoxicity at 46 µM: Homo sapiens, read-out: HepG2, IC50 (dash = less than 25% cytotoxicity); for cytotoxicity at 46 µM / HepG2, IC50 (dash = less than 25% cytotoxicity) / IC50: HepG2 cells, 72 h, AlamarBlue; for cytotoxicity at 46 µM / HepG2, IC50 (dash = less than 25% cytotoxicity): up to 46 µM; for IC50 / maximum response, HepG2 cytotoxicity: titration 0.001 to 46 µM; for IC50: mean ± SD, n = 3. As for the experimental part:
as §1
Drug activity on HepG2 was tested using an AlamarBlue assay as previously described. Briefly, 5 μL/well of HepG2 cells were dispensed with a seeding density of 1000 cells/well using the Multidrop Combi. 23 nL compound was transferred using the NX-TR Pintool. After 72 h incubation under the standard culture condition, 5 μL/well of 2X AlamarBlue dye was added to the cells, the plates were incubated for 2 h at 37 °C with 5% CO2 and then were read in a fluorescence detection mode (Ex = 525 nm, Em = 598 nm) on a ViewLux plate reader.

Data set [4] concerns 468 human kinases. The data set is described as follows: human kinase profiling (Kinome scan, DiscoverX), whole panel. The class given is binding.

The IC50 is the midpoint of a concentration-inhibition curve. A low value points to greater potency in that assay.

`CCOCc1cc(CN2CCN(c3ccccc3OC)CC2)c(O)c2ncccc12` [NCGC00114940]: the half-maximal inhibitory concentration (IC50) is 0.62 ± 0.04 µM in data set [1] (Plasmodium falciparum) and 1.16 ± 0.57 µM in data set [2] (Plasmodium falciparum). Further, in data set [1], the Asexual/Gametocyte is given as 1.87. The cytotoxicity at 46 µM in data set [3] is < 25%. The “number of human kinases interacting (Interactions Mapped, 468 Assays Tested)” value in data set [4] (10 μM) worked out at 0. Besides, in data set [4] (10 µM, 468 assays), the “S-Score(35)” value is recorded as 0. The “binding to human kinases, in words” value in data set [4] (10 µM, 468 human kinases) is listed as “did not affect the activity of any”.

Take `Cc1cc(Nc2ccc(F)cc2F)nc(-n2nc(C)cc2C)n1` [NCGC00134158]: the IC50 in data set [1] turned out to be 2.08 ± 0.18 µM; in data set [2], 4.7 ± 0.52 µM. Further, the Asexual/Gametocyte in data set [1] is recorded as 2.26. For the same molecule, the “HepG2, IC50 (dash = less than 25% cytotoxicity)” value in data set [3] is given as “– (Indicates compounds with less than 25% cytotoxicity at up to 46 µM)”.

Consider `CCOc1ccccc1N(C)C(=O)Cn1cnc2sc(C)c(S(=O)(=O)N3CCC(C)CC3)c2c1=O` [NCGC00104044], for which, in data set [1], the Asexual/Gametocyte was found to be 0.26. In data set [2], this molecule gave an IC50 of 9.94 ± 0.93 µM. For the same molecule, in data set [3], the “HepG2, IC50 (dash = less than 25% cytotoxicity)” value is on record as “– (Indicates compounds with less than 25% cytotoxicity at up to 46 µM)”.

With `CCc1ccc(Oc2c(C(F)(F)F)oc3c(CN4CCN(CC)CC4)c(O)ccc3c2=O)cc1` [NCGC00101506], in data set [1], the half-maximal inhibitory concentration (IC50) is 4.82 ± 0.21 µM and the Asexual/Gametocyte stood at 0.11. The IC50 in data set [2] came out at 0.54 ± 0.05 µM. Besides, in data set [3], the “HepG2, IC50 (dash = less than 25% cytotoxicity)” value is on record as “– (Indicates compounds with less than 25% cytotoxicity at up to 46 µM)”.

For `CC(C)(C)OC(=O)N1CCC(c2c(C(=O)NCCN3CCC(Cc4ccccc4)CC3)cnn2-c2ccccc2)CC1` [NCGC00127017], the results for the 50% inhibitory concentration (IC50) in data set [1], in data set [2] and in data set [3] were 11.9 ± 2.05 µM, 3.44 ± 0.24 µM and 25.3 µM, respectively. Further, the Asexual/Gametocyte in data set [1] is on record as 0.29. Further, the “maximum response, HepG2 cytotoxicity” value in data set [3] was 87.6%.

For `Cc1cc(Nc2ccc(C(C)C)cc2)nc(-n2nc(C)cc2C)n1` [NCGC00134128], the half-inhibitory concentration (IC50) amounted to 1.18 ± 0.17 µM in data set [1] (Plasmodium falciparum) and 1.93 ± 0.13 µM in data set [2] (Plasmodium falciparum). Moreover, the Asexual/Gametocyte in data set [1] turned out to be 1.64. For the same molecule, in data set [3], the cytotoxicity at 46 µM was < 25%.

For `CC(C)(C)OC(=O)N1CCC(c2c(C(=O)NCCN3CCOCC3)cnn2-c2ccccc2)CC1` [NCGC00127015], in data set [1], the 50% inhibitory concentration (IC50) was determined as 20.3 ± 0.31 µM and the Asexual/Gametocyte is on record as 0.15. The molecule also gave a half-maximal inhibitory concentration (IC50) in data set [2] of 3.05 ± 0.27 µM. Also, in data set [3], the half-inhibitory concentration (IC50) was 38.4 µM and the “maximum response, HepG2 cytotoxicity” value is on record as 87.2%.

Consider `Cc1cccc2nc(-c3ccccn3)c(Nc3ccccc3)n12` [NCGC00106055], for which, in data set [1], the half-maximal inhibitory concentration (IC50) is 3.98 ± 1.12 µM and the Asexual/Gametocyte amounted to 1.05. This molecule also yielded an IC50 in data set [2] of 4.18 ± 0.68 µM. For the same molecule, in data set [3], the “HepG2, IC50 (dash = less than 25% cytotoxicity)” value is on record as “– (Indicates compounds with less than 25% cytotoxicity at up to 46 µM)”.
